Assay results taken from a melting point compilation (Tetko et al.; mined from patent text by program, amines drawn as free bases though some values may be those of a salt).

Row | melting point | Compound
1 | 90 to 95 °C | CCCCCC(Sc1ccc(OC)cc1)C(=O)O (configuration not stated)
2 | 177 to 179 °C | COC(=O)c1c(-c2cc(C)c(O)c(C)c2)c(C)n2c1-c1cc(OC)c(OC)cc1CC2C (racemic)
3 | 59 to 60 °C | COC(=O)Cc1nc(-c2ccc(C)cc2)oc1C
4 | 222 °C | CCOC(=O)C1=C(C)Nc2c(C(=O)O)ncn2C1c1cccc([N+](=O)[O-])c1 (configuration not stated)
5 | 147 to 148 °C | CCOC(=O)C1C(=O)N(c2ccc(Cl)c(Cl)c2)N=C1C (configuration not stated)
6 | 298 to 299 °C | CCCn1c(=O)c2[nH]c(-c3nn(CC(=O)Nc4ccc(Cl)cc4)c(C)c3Br)nc2n(CCC)c1=O
7 | 124 to 125 °C | CCCCCC(=O)c1ncc(S(N)(=O)=O)s1
8 | 199 to 200 °C | COC(=O)Nc1nccc(Oc2ccc3c(C(=O)Nc4cccc(C(F)(F)F)c4)cccc3c2)n1
9 | 75 to 76 °C | OCCCc1oc(-n2cccn2)nc1-c1ccc(Cl)cc1
10 | 187 to 190 °C | COC(=O)c1cc(N)c(F)c(Br)n1
11 | 120 to 122 °C | COC(=O)N(C)n1c(C)nc(N2CCc3ccccc3CC2)c(C#N)c1=O
12 | 245 °C | COC(=O)C1=C(C)Nc2ccnc(OC(C)C)c2C1c1c(Cl)cccc1Cl (configuration not stated)
13 | 210 to 216 °C | CC1(N)CN(c2cc3c(cc2F)c(=O)c(C(=O)O)cn3-c2ccc(F)cc2F)C1
14 | 124 to 125 °C | CN1CCN(C2=Nc3ccncc3Oc3ccccc32)CC1
15 | 95 to 96 °C | CCOC(=O)C(=O)c1ccc(OCCCCC(=O)c2cc(C(C)(C)C)c(O)c(C(C)(C)C)c2)cc1
16 | 205 to 206 °C | CC(=O)OCCn1ccc(=O)c(O)c1Cc1ccc(C)cc1
17 | 243 °C | CCOC(=O)c1ncn2c(C(F)(F)F)cc(-c3ccc(C(F)(F)F)cc3)nc12
18 | 41 to 42 °C | CSc1nc(N)n(-c2ccccc2Oc2ccc(C)cc2O)n1
19 | 109 to 112 °C | CCCCc1ncc(CNC(C)(Cc2cccs2)C(=O)O)n1Cc1ccccc1Cl (configuration not stated)

Row | melting point | Compound
20 | 155 to 156 °C | Cc1ccc(CSc2nc3cc4c(cc3[nH]2)OCCO4)nc1
21 | 138 to 140 °C | O=C(Nc1ccc(-n2nc(C(F)(F)F)cc2C(F)(F)F)cc1)c1cc(F)c(F)c(F)c1F
22 | 138 to 150 °C | CC(C)CC(=O)NC(=O)c1nnn(Cc2ccccc2)c1N
23 | 120 to 122 °C | O=C(CCCCCCNC(=O)c1ccc(C(F)(C(=O)Nc2cccc3cccnc23)C(=O)Nc2cccc3cccnc23)cc1)NO
24 | 129 °C | Cc1cccc(N2C(=S)SC(C)C2(C)O)n1 (configuration not stated)
25 | 116 to 118 °C | CCOC(=O)COc1ccc(S(=O)CCNS(=O)(=O)c2ccccc2)cc1 (configuration not stated)
26 | 242 to 247 °C | CN1CCN(C(=O)c2ccc3cc(-c4csc(N(C)S(=O)(=O)c5ccccc5)n4)c(=O)[nH]c3c2)CC1
27 | 151 to 152 °C | CCC(C)(C)OC(=O)NC(C)(Cc1c[nH]c2ccccc12)C(=O)NCCc1ccccn1 (configuration not stated)
28 | 162 to 164 °C | CCOC(=O)Cc1ncnc2c([N+](=O)[O-])cccc12
29 | 106 to 109 °C | COc1ccc(CN(CCN(C)CCCNC(=O)NCCSCc2csc(NC(=N)N)n2)c2ccccn2)cc1
30 | 151 to 152 °C | CCCCOc1c(CNC(=O)OC(C)(C)C)n(CC2CC2)c(=O)c2ccc(C=O)cc12
31 | 117 to 118 °C | CCOC(=O)c1nc(-c2ccc(Cl)cc2Cl)c(-c2ccc(Cl)cc2)s1
32 | 138 to 140 °C | COc1ccc(CNc2cc(Cl)c(N=CN(C)C)c(Cl)c2)cc1F
33 | 180 to 181 °C | CCCCCCCCc1ccc(N(c2ccc(CCCCCCCC)cc2)C2(c3ccc(N(CC)CC)cc3)OC(=O)c3nccnc32)cc1 (configuration not stated)
34 | 74 to 75.5 °C | CCN(C=C1C(=O)N(c2cccc(Cl)c2)c2ccccc21)CC
35 | 174 °C | Cc1cc(NCCO)c([N+](=O)[O-])cc1O
36 | 224 °C | C#CCOc1cccc(-c2nc3cnncc3[nH]2)c1OC
37 | 83 to 84 °C | CCOC(=O)CC=Cc1ccc2ccccc2c1O
38 | 212 to 215 °C | CCOC(=O)c1cnn2c1nc(NCCCN(C)C)c1cnc3c(cnn3CC)c12

The next lines start with the compound.

Row | Compound | melting point
39 | O=C(C=Cc1ccccc1)Oc1ccccc1 | 114 to 116 °C
40 | N#CN=C1NCCN1CC#CCNC(=O)C(O)(c1ccccc1)C1CCCCC1 (configuration not stated) | 207 to 210 °C
41 | O=C(Nc1ccc2oc3c(c2c1)CCCC3)c1ccccc1 | 178 to 180 °C
42 | CC(=O)NCc1ccc(CN2CCN(c3ccc(F)cc3)CC2)cc1 | 164 to 166 °C
43 | COc1ccc(C#N)cc1/C=C/C(=O)O | 252 to 253 °C
44 | CN1CCC(NCc2ccccc2)(c2ccccc2)C(O)C1 (configuration not stated) | 162 to 164 °C
45 | NCC1CCn2c(c(C3=C(c4cccc(C(F)(F)F)c4)C(=O)NC3=O)c3ccccc32)C1 (configuration not stated) | 202 to 204 °C
46 | CC(=O)NC(CCc1ccccc1)(COC(C)=O)COC(C)=O | 116 to 117 °C
47 | O=C1CC(C(=O)O)Oc2ccccc21 (configuration not stated) | 170 to 171 °C
48 | O=C(NCC12CC3CC(CC(C3)C1)C2)c1c(Cl)ccc2nc(N3CCC(C(=O)NO)CC3)ccc12 | 189 to 196 °C
49 | O=S(=O)(Br)c1ccc(Cl)s1 | 35 to 37 °C
50 | O=C1C(=O)N(c2ccc(F)cc2)c2ccc(F)cc21 | 180 to 190 °C
51 | CC(C)c1ccc(C(=O)C2=C(O)C(=O)N(c3ccc(Sc4ccc([N+](=O)[O-])cc4)nn3)C2c2ccc(OC(F)(F)F)cc2)cc1 (configuration not stated) | 194 to 209 °C
52 | O=C(CCC#Cc1ccccn1)Nc1cccc(F)c1 | 110 to 114 °C
53 | Nc1ccc(CCC(=O)c2ccccc2)cc1 | 76 to 78 °C
54 | O=S(=O)(Nc1cccc(Br)c1)c1cc(S(=O)(=O)Nc2cccc(Br)c2)c2ccccc2c1 | 183 to 186 °C
55 | O=C(O)COc1nnc(C(F)(F)F)s1 | 58 °C

Row | Compound | melting point
56 | O=C(O)CN(CC(=O)O)C(=O)OCC1c2ccccc2-c2ccccc21 | 213 to 216 °C
57 | O=C1COCCOCC(=O)NCCOCCOCCN1 | 111 °C
58 | C[C@@H]1O[C@](/C=C/C2CC2)(C(F)(F)F)c2cc(Cl)ccc2NC1=O (relative stereo) | 171 to 172 °C
59 | Nc1ccc(F)c(Br)c1F | 77 to 78 °C
60 | CC(C)(C)OC(=O)N1CCC2(CC1)CSC1=C(O2)c2cc(-c3ccccc3C(F)(F)F)ccc2C(=O)C1=O | 223 to 225 °C
61 | O=C1Nc2ccc(C(c3ccc(Cl)cc3)n3ccnc3)cc2C(c2cccc(Cl)c2)N1 (configuration not stated) | 177 °C
62 | C=CCNC1=NN=C(c2ccc(Cl)cc2Cl)CS1 | 188 to 189 °C
63 | Cn1nc(-c2c(F)cccc2Cl)nc1-c1ccc(F)c(-c2ccc(OC(F)(F)F)cc2)c1 | 117 to 119 °C
64 | N#Cc1c(-c2cc3ccccc3s2)nn(-c2ccccc2)c1N | 260 to 262 °C
65 | CC1(C)N=C(c2ccccc2)CC1c1ccncc1 (configuration not stated) | 90 to 92 °C
66 | CC1(C)CC(C)(O)C2CCC2(C)C1 (configuration not stated) | 54 to 55 °C
67 | CCc1cc2c(C3=NNC(=O)CC3C)cc(Cl)cn2n1 (configuration not stated) | 172 to 174 °C
68 | Cc1cccc(-c2nc(N)sc2-c2ccc(F)c(-c3ccc(S(C)(=O)=O)cc3)c2)n1 | 202 to 204 °C
69 | C[C@]12CC[C@H](O)CC1=CCC1C2CC[C@@]2(C)C1CC[C@@H]2C1=CC(=O)OC1 (some centres not stated) | 286 to 287 °C
70 | OC(Cc1ccnc2ccccc12)C(Cl)(Cl)Cl (configuration not stated) | 190 to 192 °C
71 | CC(=O)Nc1ccc(Cl)cc1C(=O)c1ccccc1 | 114 °C
72 | O=C1CNc2ccc(F)cc2O1 | 199 °C
